Tests used:
Human ALDH3A1 = biological target: T1, Human ALDH3A1 (Homo sapiens, UniProt P30838); experiment: ALDH3A1 inhibition, IC50, Ki and type of inhibition; assay type: biochemical; settings: for IC50: 31 μM 4-NBA as substrate
T1 construct: made in house
T1 sequence (P30838 1-453): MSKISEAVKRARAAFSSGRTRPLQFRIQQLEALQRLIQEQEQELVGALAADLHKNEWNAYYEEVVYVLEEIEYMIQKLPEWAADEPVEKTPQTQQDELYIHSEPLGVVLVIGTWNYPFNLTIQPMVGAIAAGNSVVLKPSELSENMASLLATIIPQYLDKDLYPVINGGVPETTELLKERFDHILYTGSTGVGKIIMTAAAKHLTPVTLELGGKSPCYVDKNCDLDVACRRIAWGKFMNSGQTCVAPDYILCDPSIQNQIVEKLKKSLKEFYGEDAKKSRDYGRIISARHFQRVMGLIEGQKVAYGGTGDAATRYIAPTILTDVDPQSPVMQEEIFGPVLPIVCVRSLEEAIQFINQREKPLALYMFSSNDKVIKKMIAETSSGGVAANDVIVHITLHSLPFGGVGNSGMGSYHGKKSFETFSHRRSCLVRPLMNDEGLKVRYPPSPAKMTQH

PC3 = experiment: MTT chemosensitivity assay, PC3; assay type: cell-based, human; settings: Homo sapiens, PC-3, 96 h exposure, ± SD, at least three independent experiments
DU145 = experiment: MTT chemosensitivity assay, DU145; assay type: cell-based, human; settings: Homo sapiens, DU-145, 96 h exposure, ± SD, at least three independent experiments
[1] = tested on: patient-derived primary prostate tumor epithelial cells; experiment: Alamar Blue cell viability of primary prostate epithelial cultures; assay type: cell-based, human; settings: 72 h; for cell viability of primary prostate epithelial cultures, combination with docetaxel: 50 and 200 μM + 1 nM docetaxel; for cell viability of primary prostate epithelial cultures, single agent: 50 and 200 μM, four cancer samples and one BPH
Protocol: Primary cells cultured at early passage from human prostate tissue biopsies included one BPH sample H415/15–BPH/PSA 0.61 and four PCa samples H568/15 RM–Gl7(3 + 4)/PSA 8.5, H431/14 LM–Gl7(3 + 4)/PSA 14, H488/14 RM–Gl7(3 + 4)/PSA 12.6, and H517/15 RM–Gl7(3 + 4)/PSA 4.4. Primary cells were obtained with ethical consent (REC ref 07/H1304/121) at radical prostatectomy (cancer) and transurethral resection (BPH) and were seeded as previously described[37] in 96-well plates 5000 cells/well in 100 μL of SCM and incubated at 37 °C, 5% CO2 for 24 h. […] Cells were treated with 100 μL of ALDH inhibitors at concentrations of 50 and 200 μM as single treatment. Combination treatments included 100 μL of 50 μM ALDH inhibitor + 1 nM docetaxel and 100 μL of 200 μM ALDH inhibitor + 1 nM docetaxel. Cells were also treated with 100 μL of 1 nM docetaxel only. 1 nM docetaxel was chosen since it was the IC50 when other primary samples were analyzed in our laboratory. Control wells included blank (media only) and untreated cells (DMSO only). Each experiment was performed in triplicate, and cell seeding density was the same in all wells; therefore, changes in treated cells were compared to untreated DMSO control cells. Plates were returned to the incubator for a 72 h incubation before further processing. Alamar Blue solution was added at 10% of total sample volume, and plates were incubated at 37 °C for 1–4 h before absorbance was analyzed in a plate reader.[65] Alamar Blue has an excitation wavelength of 530–560 nm and an emission wavelength of 590 nm. Total % cell viability/cell survival was calculated by dividing the absorbance of the treated sample by the absorbance of control and multiplying it by 100.

type of inhibition ALDH3A1 (Human ALDH3A1; 4-NBA as substrate) | Ki (Human ALDH3A1; 4-NBA as substrate, fit to competitive inhibition equation, mean ± SE) [µM] | IC50 with versus without preincubation with the cofactor NADP+ (Human ALDH3A1; 5-min preincubation) | Compound | IC50 (Human ALDH3A1; mean ± SE) [µM] | IC50 (PC3) [µM] | IC50 (DU145) [µM] | cell viability of primary prostate epithelial cultures, combination with docetaxel [1] | cell viability of primary prostate epithelial cultures, single agent [1]
competitive | 0.3 ± 0.06 | no differences were observed | CCCN(CCC)c1ccc(C=O)cc1[N+](=O)[O-] [Compound 18, 4-(Dipropylamino)-3-Nitrobenzaldehyde] | 1.61 ± 0.17 | 98 ± 12 | 100 ± 13 | more potent than DEAB | more potent than DEAB
 |  |  | CCCN(CCC)c1ccc(C=O)cc1Br [Compound 14, 3-Bromo-4-(dipropylamino)benzaldehyde] | 8 ± 1.56 | 47 ± 6 | 61 ± 5 | more potent than DEAB | more potent than DEAB

— paper PMC9007462 (Journal of Medicinal Chemistry, 2022)
